Measurements from patent publication US10836789B2, “Inhibitors of glucocorticoid receptor” (ORIC Pharmaceuticals, Inc., priority 2016, dated 2020).

The molecules below were run on AR (assay: AR agonism assay in LNAR reporter cell line). Conditions: LNAR cells (overexpressed AR, 4XARE-Luc), 10% CSS, 18-24 hrs; Mifepristone maximum response set to 1.
Type: cell-based
Experimental: Example B: In Vitro AR Agonism Assay
The AR agonism assay was done in the LNAR reporter cell line which has overexpressed AR and 4XARE-Luc genes. This cell line is sensitive to even minor partial AR agonism activity in hormone-deprived media (CSS). The assays were done in RPMI (without phenol red)+10% CSS using 6000 LNAR cells/well in 384-well plates and compounds were incubated with cells in […] incubator for 18-24 hrs. OneGlo reagent (25 uL/well) was added and plates were read with luminometer within 3 minutes.
To gauge the AR partial agonism activity, Mifepristone is included as a standard in the assay. AR agonism assay results are quantified by determining the ratio of the maximum response of individual compounds to the maximum response of Mifepristone (arbitrarily set to 1). Values of Table 4 are reported as Relative Maximum Response to Mifepristone. This general trend of AR agonism was shown for the class of compounds described herein.

In the case of `CC(C)N(C)c1ccc([C@H]2C[C@@]3(C)[C@@H](CC(C)[C@@]3(O)C#CC(C)(C)C)[C@@H]3CCC4=CC(=O)CC[C@@H]4[C@H]32)cc1` (single isomer, unassigned) [Compound 8], the “Relative Maximum Response to Mifepristone” value is reported as “A (A: ≤ 0.4)”.
With `CC(C)(C)C#C[C@]1(O)CC[C@H]2[C@@H]3CCC4=CC(=O)CC[C@@H]4[C@H]3[C@@H](c3ccc(N4CCCC4)cc3)C[C@@]21C` [Compound 1, (8R,9S,10R,11S,13S,14S,17S)-17-(3,3-Dimethylbut-1-yn-1-yl)-17-hydroxy-13-methyl-11-(4-(pyrrolidin-1-yl)phenyl)-1,2,6,7,8,9,10,11,12,13,14,15,16,17-tetradecahydro-3H-cyclopenta[a]phenanthren-3-one] the “Relative Maximum Response to Mifepristone” value was “A (A: ≤ 0.4)”.

Same assay, conditions: in concentrations as low as 10 nM

With `CC#C[C@]1(O)CC[C@H]2[C@@H]3CCC4=CC(=O)CCC4=C3[C@@H](c3ccc(N(C)C)cc3)C[C@@]21C` [Mifepristone, reference compound] the “partial AR agonism” value was “strong partial AR agonism”.

These molecules were tested against T1, GR (Homo sapiens, UniProt P04150) (assay: GR luciferase antagonist assay (CHO/GR/MMTV Luciferase cells)). Conditions: 10 nM Dexamethasone final, 16-18 h.
T1 construct: expressed in transfected cells; host or cells: CHO cells carrying GR and an MMTV-luciferase reporter
T1 sequence (P04150 1-777): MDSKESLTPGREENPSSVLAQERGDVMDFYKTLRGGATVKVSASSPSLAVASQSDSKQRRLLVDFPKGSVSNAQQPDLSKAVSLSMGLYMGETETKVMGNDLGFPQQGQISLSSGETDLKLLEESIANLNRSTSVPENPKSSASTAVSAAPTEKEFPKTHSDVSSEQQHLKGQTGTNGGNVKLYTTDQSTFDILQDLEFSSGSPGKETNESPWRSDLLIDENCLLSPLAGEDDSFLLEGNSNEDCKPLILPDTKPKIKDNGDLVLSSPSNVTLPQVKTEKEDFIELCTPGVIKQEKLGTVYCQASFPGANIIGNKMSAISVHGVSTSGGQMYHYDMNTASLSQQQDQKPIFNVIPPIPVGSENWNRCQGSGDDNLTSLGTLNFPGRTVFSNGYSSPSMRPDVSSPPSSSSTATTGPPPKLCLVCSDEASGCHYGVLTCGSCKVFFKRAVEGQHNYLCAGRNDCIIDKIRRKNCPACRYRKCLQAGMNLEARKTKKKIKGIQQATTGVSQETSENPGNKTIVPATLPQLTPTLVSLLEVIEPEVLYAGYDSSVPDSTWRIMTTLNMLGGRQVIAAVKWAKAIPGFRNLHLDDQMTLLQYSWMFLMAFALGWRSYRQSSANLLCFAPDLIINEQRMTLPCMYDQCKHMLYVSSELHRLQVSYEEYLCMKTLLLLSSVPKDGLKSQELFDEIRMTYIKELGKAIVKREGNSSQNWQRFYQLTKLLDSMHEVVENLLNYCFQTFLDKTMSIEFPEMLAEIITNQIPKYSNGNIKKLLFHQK
Type: cell-based
Experimental: Example A: […] GR Luciferase Assay Cell Line: CHO/GR/MMTV Luciferase Culture Media: DMEM (with phenol red)+10% FBS Assay Media: DMEM (without phenol red)+10% CSS A 1×10 cm plate of cells was split into 2×15 cm plates in Assay Media (CSS). After 4 days, the cells in the Assay Media were collected and counted. Antagonist Assay: 1.5×10^4 cells per well were plated in a 384-well white walled TC plate in 20 ul of Assay Media containing 12.5 nM Dexamethasone (final concentration=10 nM). The plates were covered with film to avoid evaporation and placed in a TC incubator. Media/drug dilutions were prepared in Assay Media in 96-well sterile plates. 100 ul of Assay Media was distributed in aliquots into 96-well plates with an 8-Channel pipette (20-200 ul). 0.5 ul of 1000× concentration of compounds were added to the plates with 8-Channel pipette (0.5-10 ul). The plates were shaken for 15 seconds to mix. The film was removed from the 384-well plates with assay cells. 5 ul of media/drug dilutions were added to appropriate wells. The plates were covered with film to avoid evaporation and placed in a TC incubator overnight. After 16-18 h in the incubator, the plates were removed and sat at room temperature for 10 minutes to equilibrate. The Reagent Dispenser was setup to distribute 25 ul aliquots of OneGlo Luciferase Reagent (at room temperature) to each well of the 384-well plate using standard cassette. After OneGlo was added to the plates, the plates were shaken briefly, then incubated in the dark at room temperature for about 3 minutes. The plates were read using a Tecan or Promega luminometer. The ability of the compounds disclosed herein to inhibit GR activity was quantified and the respective IC50 value was determined. Table 3 provides the cellular IC50 values of various substituted steroidal compounds disclosed herein.

`CC(C)N(C)c1ccc([C@H]2C[C@@]3(C)[C@@H](CC(C)[C@@]3(O)C#CC(C)(C)C)[C@@H]3CCC4=CC(=O)CC[C@@H]4[C@H]32)cc1` (single isomer, unassigned) [Compound 8] and `CCN(CC)c1ccc([C@H]2C[C@@]3(C)[C@@H](CC[C@@]3(O)C#CC(C)(C)C)[C@@H]3CCC4=CC(=O)CC[C@@H]4[C@H]32)cc1` [Compound 9, (8R,9S,10R,11S,13S,14S,17S)-11-(4-(Diethylamino)phenyl)-17-(3,3-dimethylbut-1-yn-1-yl)-17-hydroxy-13-methyl-1,2,6,7,8,9,10,11,12,13,14,15,16,17-tetradecahydro-3H-cyclopenta[a]phenanthren-3-one] cannot be ordered by IC50: no more than 0.1 µM for the first, no more than 0.1 µM for the second.

`CC(C)(C)C#C[C@]1(O)CC[C@H]2[C@@H]3CCC4=CC(=O)CC[C@@H]4[C@H]3[C@@H](c3ccc(N4CCCC4)cc3)C[C@@]21C` [Compound 1, (8R,9S,10R,11S,13S,14S,17S)-17-(3,3-Dimethylbut-1-yn-1-yl)-17-hydroxy-13-methyl-11-(4-(pyrrolidin-1-yl)phenyl)-1,2,6,7,8,9,10,11,12,13,14,15,16,17-tetradecahydro-3H-cyclopenta[a]phenanthren-3-one] and `CC(=O)N1CCN(c2ccc([C@H]3C[C@@]4(C)[C@@H](CC[C@@]4(O)C#CC(C)(C)C)[C@@H]4CCC5=CC(=O)CC[C@@H]5[C@H]43)cc2)CC1` [Compound 24] cannot be ordered by IC50: no more than 0.1 µM for the first, no more than 0.1 µM for the second.

`CC(C)(C)C#C[C@]1(O)CC[C@H]2[C@@H]3CCC4=CC(=O)CC[C@@H]4[C@H]3[C@@H](c3ccc4c(c3)OCCO4)C[C@@]21C` [Compound 3, (8R,9S,10R,11S,13S,14S,17S)-11-(2,3-Dihydrobenzo[b][1,4]dioxin-6-yl)-17-(3,3-dimethylbut-1-yn-1-yl)-17-hydroxy-13-methyl-1,2,6,7,8,9,10,11,12,13,14,15,16,17-tetradecahydro-3H-cyclopenta[a]phenanthren-3-one] and `CC(C)(C)C#C[C@]1(O)CC[C@H]2[C@@H]3CCC4=CC(=O)CC[C@@H]4[C@H]3[C@@H](c3ccc4c(c3)OCO4)C[C@@]21C` [Compound 5, (8R,9S,10R,11S,13S,14S,17S)-11-(Benzo[d][1,3]dioxol-5-yl)-17-(3,3-dimethylbut-1-yn-1-yl)-17-hydroxy-13-methyl-1,2,6,7,8,9,10,11,12,13,14,15,16,17-tetradecahydro-3H-cyclopenta[a]phenanthren-3-one] cannot be ordered by IC50: no more than 0.1 µM for the first, no more than 0.1 µM for the second.

`CCC#C[C@]1(O)CC[C@H]2[C@@H]3CCC4=CC(=O)CC[C@]4(C)[C@H]3[C@@H](c3ccc(NC)cc3)C[C@@]21C` [Compound 12] and `CC#C[C@]1(O)CC[C@H]2[C@@H]3CCC4=CC(=O)CC[C@]4(C)[C@H]3[C@@H](c3ccc(NC)cc3)C[C@@]21C` [Compound 23] cannot be ordered by IC50: greater than 0.1 µM for the first, greater than 0.1 µM for the second.

`CC(C)(C)C#C[C@]1(O)CC[C@H]2[C@@H]3CCC4=CC(=O)CC[C@@H]4[C@H]3[C@@H](c3ccc(N)cc3)C[C@@]21C` [Compound 13, (8R,9S,10R,11S,13S,14S,17S)-11-(4-Aminophenyl)-17-(3,3-dimethylbut-1-yn-1-yl)-17-hydroxy-13-methyl-1,2,6,7,8,9,10,11,12,13,14,15,16,17-tetradecahydro-3H-cyclopenta[a]phenanthren-3-one] and `CC(C)N(C)c1ccc([C@H]2C[C@@]3(C)[C@@H](CC[C@@]3(O)C#CC(C)(C)C)[C@@H]3CCC4=CC(=O)CC[C@@H]4[C@H]32)cc1F` [Compound 15, (8R,9S,10R,11S,13S,14S,17S)-17-(3,3-Dimethylbut-1-yn-1-yl)-11-(3-fluoro-4-(isopropyl(methyl)amino)phenyl)-17-hydroxy-13-methyl-1,2,6,7,8,9,10,11,12,13,14,15,16,17-tetradecahydro-3H-cyclopenta[a]phenanthren-3-one] cannot be ordered by IC50: no more than 0.1 µM for the first, no more than 0.1 µM for the second.

`CC(C)N(C)c1ccc([C@H]2C[C@@]3(C)[C@@H](CC[C@@]3(O)C#CC(C)(C)C)[C@@H]3CCC4=CC(=O)CC[C@]4(C)[C@H]32)cc1` [Compound 16] and `CC#C[C@]1(O)CC[C@H]2[C@@H]3CCC4=CC(=O)CC[C@]4(C)[C@H]3[C@@H](c3ccc(NC(C)C)cc3)C[C@@]21C` [Compound 30, (8S,9R,10R,11S,13S,14S,17S)-17-Hydroxy-11-(4-(isopropylamino)phenyl)-10,13-dimethyl-17-(prop-1-yn-1-yl)-1,2,6,7,8,9,10,11,12,13,14,15,16,17-tetradecahydro-3H-cyclopenta[a]phenanthren-3-one] cannot be ordered by IC50: greater than 0.1 µM for the first, greater than 0.1 µM for the second.

`CC#C[C@]1(O)CC[C@H]2[C@@H]3CCC4=CC(=O)CC[C@]4(C)[C@H]3[C@@H](c3ccc(N)cc3)C[C@@]21C` [Compound 26, (8S,9R,10R,11S,13S,14S,17S)-11-(4-Aminophenyl)-17-hydroxy-10,13-dimethyl-17-(prop-1-yn-1-yl)-1,2,6,7,8,9,10,11,12,13,14,15,16,17-tetradecahydro-3H-cyclopenta[a]phenanthren-3-one] and `CC#C[C@]1(O)CC[C@H]2[C@@H]3CCC4=CC(=O)CC[C@]4(C)[C@H]3[C@@H](c3ccc(-n4cccc4)cc3)C[C@@]21C` [Compound 31, (8S,9R,10R,11S,13S,14S,17S)-11-(4-(1H-Pyrrol-1-yl)phenyl)-17-hydroxy-10,13-dimethyl-17-(prop-1-yn-1-yl)-1,2,6,7,8,9,10,11,12,13,14,15,16,17-tetradecahydro-3H-cyclopenta[a]phenanthren-3-one] cannot be ordered by IC50: greater than 0.1 µM for the first, no more than 0.1 µM for the second.

`CC(C)(C)C#C[C@]1(O)CC[C@H]2[C@@H]3CCC4=CC(=O)CC[C@@H]4[C@H]3[C@@H](c3ccc(N4CCN(S(C)(=O)=O)CC4)cc3)C[C@@]21C` [Compound 27] and `C[C@]12CCC(=O)C=C1CC[C@@H]1[C@@H]2[C@@H](c2ccc(N3CCCC3)cc2)C[C@@]2(C)[C@H]1CC[C@@]2(O)C#CC(F)(F)F` [Compound 29] cannot be ordered by IC50: no more than 0.1 µM for the first, no more than 0.1 µM for the second.

`C[C@]12CCC(=O)C=C1CC[C@@H]1[C@@H]2[C@@H](c2ccc(N3CCCC3)cc2)C[C@@]2(C)[C@H]1CC[C@@]2(O)C#CC1CC1` [Compound 28] gave an IC50 greater than 0.1 µM.
